Structures can show the parent of a compound that is named as a salt.

In this assay the target is T1, NLRP3 (Homo sapiens, UniProt Q96P20).
T1 construct: Seed THP-1 cells (25,000 cells/well) containing 1.0 μg/ml LPS in 40 μl of RPMI medium; host or cells: THP-1 cells
In words: THP-1 Cells Pyroptosis Assay. It counts as cell-based. As to conditions: THP-1 cells with 1.0 μg/ml LPS; compound 3 hours; nigericin 5 μM 1 hr; resazurin readout. The method in brief: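 THP-1 cells in serum-free RPMI primed with LPS (1 μg/ml FAC), incubated with compound 3 h at 37 °C, then nigericin (5 μM FAC) for 1 h. Supernatant removed after spin; viability read by resazurin (100 μM FAC) reduction after a further 1-2 h at 37 °C.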

T1 sequence (Q96P20 whole entry): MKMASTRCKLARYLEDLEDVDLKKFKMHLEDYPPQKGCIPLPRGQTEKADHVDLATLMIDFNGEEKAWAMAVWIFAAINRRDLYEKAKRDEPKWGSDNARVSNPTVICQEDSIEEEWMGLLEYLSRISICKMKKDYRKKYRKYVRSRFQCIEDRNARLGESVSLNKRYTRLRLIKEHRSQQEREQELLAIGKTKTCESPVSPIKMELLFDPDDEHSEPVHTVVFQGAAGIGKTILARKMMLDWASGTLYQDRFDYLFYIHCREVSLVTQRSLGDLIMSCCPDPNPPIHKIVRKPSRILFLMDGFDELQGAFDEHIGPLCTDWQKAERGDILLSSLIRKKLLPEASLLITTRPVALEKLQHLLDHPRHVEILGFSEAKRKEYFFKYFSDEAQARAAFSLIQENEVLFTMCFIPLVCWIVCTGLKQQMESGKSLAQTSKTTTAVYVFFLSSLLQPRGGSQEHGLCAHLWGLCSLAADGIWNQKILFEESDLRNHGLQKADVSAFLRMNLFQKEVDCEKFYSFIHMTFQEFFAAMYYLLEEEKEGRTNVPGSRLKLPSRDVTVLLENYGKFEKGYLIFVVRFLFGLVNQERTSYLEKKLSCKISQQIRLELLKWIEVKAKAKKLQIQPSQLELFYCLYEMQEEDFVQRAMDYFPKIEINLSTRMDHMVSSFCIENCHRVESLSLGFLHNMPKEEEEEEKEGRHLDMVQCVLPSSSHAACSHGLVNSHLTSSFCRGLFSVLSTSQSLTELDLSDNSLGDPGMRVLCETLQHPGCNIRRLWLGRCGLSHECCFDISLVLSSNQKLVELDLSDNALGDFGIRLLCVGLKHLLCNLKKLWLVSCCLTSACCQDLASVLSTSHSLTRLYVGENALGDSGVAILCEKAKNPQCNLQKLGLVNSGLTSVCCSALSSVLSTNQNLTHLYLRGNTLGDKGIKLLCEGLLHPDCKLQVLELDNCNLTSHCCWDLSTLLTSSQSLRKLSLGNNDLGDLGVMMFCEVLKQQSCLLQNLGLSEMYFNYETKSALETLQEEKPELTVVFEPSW

As a reminder, the IC50 is the concentration needed to halve the response being measured. Read a high IC50 as a need for much substance. `CCN1CCC[C@@H](Nc2nc3nc(-c4c(C)cc(C#N)cc4O)ccc3o2)C1` [Example 25, 4-[2-[[(3R)-1-Ethyl-3-piperidyl]amino]oxazolo[4,5-b]pyridin-5-yl]-3-hydroxy-5-methyl-benzonitrile] gave a concentration for half-maximal inhibition (IC50) of 1.6 nM.

Compound `Cc1cc(Cl)cc(O)c1-c1ccc2oc(N[C@@H]3CCCN(CC(C)O)C3)nc2n1` (stereo partly drawn) [Example 97, 5-Chloro-3-methyl-2-[2-[[(3R)-1-(2-hydroxypropyl)-3-piperidyl]amino]oxazolo[4,5-b]pyridin-5-yl]phenol] displayed an IC50 of 93.9 nM.

With `CCN1CCCC(Nc2nc3nc(-c4c(C)cc(C(F)(F)F)cc4O)cnc3o2)C1` (racemic) [Example 32, (rac)-2-[2-[(1-Ethyl-3-piperidyl)amino]oxazolo[4,5-b]pyrazin-5-yl]-3-methyl-5-(trifluoromethyl)phenol;2,2,2-trifluoroacetic acid salt], the IC50 was found to be 3 nM.

For `CNC1(c2nc3nc(-c4c(C)cc(C(F)(F)F)cc4O)ccc3o2)CCOCC1` [Example 135, 3-Methyl-2-[2-[4-(methylamino)tetrahydropyran-4-yl]oxazolo[4,5-b]pyridin-5-yl]-5-(trifluoromethyl)phenol;2,2,2-trifluoroacetic acid], half-maximal inhibition (IC50) required 505 nM.

Consider `Cc1cc(Cl)cc(O)c1-c1ccc2oc(N[C@@H]3CCCN(C[C@@H]4CC[C@H]4O)C3)nc2n1` (racemic) [Example 118B, 5-chloro-2-[2-[[(3R)-1-[[rac trans-2-hydroxycyclobutyl]methyl]-3-piperidyl]amino]oxazolo[4,5-b]pyridin-5-yl]-3-methyl-phenol or 5-chloro-2-[2-[[(3R)-1-[[rac cis-2-hydroxycyclobutyl]methyl]-3-piperidyl]amino]oxazolo[4,5-b]pyridin-5-yl]-3-methyl-phenol], for which it took 30.6 nM to reach half-maximal inhibition (IC50).

`CCN1CCC[C@@H](Nc2nc3nc(-c4c(C)cc(OC(F)F)cc4O)ccc3o2)C1` [Example 130, 5-(Difluoromethoxy)-2-[2-[[(3R)-1-ethyl-3-piperidyl]amino]oxazolo[4,5-b]pyridin-5-yl]-3-methyl-phenol;2,2,2-trifluoroacetic acid] came in with an IC50 of 1.9 nM.

On to `Cc1cc(C(F)(F)F)cc(O)c1-c1ccc2oc(NCC34CC(CN3)C4)nc2n1` [Example 43, 2-[2-(2-Azabicyclo[2.1.1]hexan-1-ylmethylamino)oxazolo[4,5-b]pyridin-5-yl]-3-methyl-5-(trifluoromethyl)phenol;dihydrochloride], for which the IC50 amounted to 30.5 nM.

Consider `Cc1cc(Cl)cc(O)c1-c1ccc2oc(N3CCOC4CCN(C)CC43)nc2n1` (stereo not shown) [Example 42, 5-Chloro-3-methyl-2-[2-(6-methyl-3,4a,5,7,8,8a-hexahydro-2H-pyrido[4,3-b][1,4]oxazin-4-yl)oxazolo[4,5-b]pyridin-5-yl]phenol], for which half-maximal inhibition (IC50) required 5.1 nM.

On to `Cc1cc(C(F)(F)F)cc(O)c1-c1ccc2oc(N3CC4COCC4C3)nc2n1` (stereo not shown) [Example 62, 2-[2-(1,3,3a,4,6,6a-Hexahydrofuro[3,4-c]pyrrol-5-yl)oxazolo[4,5-b]pyridin-5-yl]-3-methyl-5-(trifluoromethyl)phenol], for which the IC50 is 84.8 nM.

Take “5-Chloro-2-[2-[[(3R)-1-ethyl-3-piperidyl]amino]oxazolo[4,5-b]pyridin-5-yl]-3-(trifluoromethoxy)phenol;2,2,2-trifluoroacetic acid [Example 114]”: the half-maximal inhibitory concentration (IC50) came to 1.1 nM.

Regarding `Cc1cc(Cl)cc(O)c1-c1ccc2oc(N[C@@H]3C[C@H](O)CN(C)C3)nc2n1` [Example 49, (3S,5R)-5-[[5-(4-Chloro-2-hydroxy-6-methyl-phenyl)oxazolo[4,5-b]pyridin-2-yl]amino]-1-methyl-piperidin-3-ol], the 50% inhibitory concentration (IC50) was found to be 1.6 nM.

Take `Cc1cc(C(F)(F)F)cc(O)c1-c1ccc2oc(N3CCCC(CO)C3)nc2n1` (stereo not shown) [Example 77, 2-[2-[3-(Hydroxymethyl)-1-piperidyl]oxazolo[4,5-b]pyridin-5-yl]-3-methyl-5-(trifluoromethyl)phenol]: the IC50 was 135 nM.

Regarding `CCN1CCC[C@@H](Nc2nc3nc(-c4c(C)cc(C(F)(F)F)cc4O)cc(OC)c3o2)C1` [Example 104, 2-[2-[[(3R)-1-Ethyl-3-piperidyl]amino]-7-methoxy-oxazolo[4,5-b]pyridin-5-yl]-3-methyl-5-(trifluoromethyl)phenol], inhibition was half-maximal at 1.9 nM (IC50).

For the compound `Cc1cc(Cl)cc(O)c1-c1ccc2oc(N[C@@H]3CCCN(CC4CC(O)C4)C3)nc2n1` (stereo partly drawn) [Example 75, 5-Chloro-3-methyl-2-[2-[[(3R)-1-[(3-hydroxycyclobutyl)methyl]-3-piperidyl]amino]oxazolo-[4,5-b]pyridin-5-yl]phenol], the IC50 amounted to 20.8 nM.

As to `Cc1cc(Cl)cc(O)c1-c1ccc2oc(NCC3CC(O)C3)nc2n1` (stereo not shown) [Example 92, 5-Chloro-2-[2-[(3-hydroxycyclobutyl)methylamino]oxazolo[4,5-b]pyridin-5-yl]-3-methyl-phenol], the IC50 was found to be 26.9 nM.

For `CCN1CCC[C@@H](Nc2nc3nc(-c4c(C)cc(C(F)(F)F)cc4O)cc(N4CC(O)C4)c3o2)C1` [Example 101, 1-[2-[[(3R)-1-Ethyl-3-piperidyl]amino]-5-[2-hydroxy-6-methyl-4-(trifluoromethyl)phenyl]-oxazolo[4,5-b]pyridin-7-yl]azetidin-3-ol], it took 6 nM to reach half-maximal inhibition (IC50).

Regarding `Cc1cc(C(F)(F)F)cc(O)c1-c1ccc2oc(NC3CCOC3)nc2n1` (racemic) [Example 38, (rac)-3-Methyl-2-[2-(tetrahydrofuran-3-ylamino)oxazolo[4,5-b]pyridin-5-yl]-5-(trifluoromethyl)phenol], half-maximal inhibition (IC50) was put at 85.3 nM.

`CCN1CCCC(Nc2nc3nc(-c4c(O)cc(Cl)cc4COC)ccc3o2)C1` [Example 24, 5-Chloro-2-[2-[[(3R)-1-ethyl-3-piperidyl]amino]oxazolo[4,5-b]pyridin-5-yl]-3-(methoxymethyl)phenol;2,2,2-trifluoroacetic acid salt] gave an IC50 of 1.7 nM.

In turn, `CNC1CCCC(Nc2nc3nc(-c4c(C)cc(C(F)(F)F)cc4O)ccc3o2)C1` (mixture of isomers) [Example 7, 3-Methyl-2-[2-[[3-(methylamino)cyclohexyl]amino]oxazolo[4,5-b]pyridin-5-yl]-5-(trifluoromethyl)phenol] displayed an IC50 of 82.1 nM.

Turning to `Cc1cc(C#N)cc(O)c1-c1ccc2oc(N3CCCC4CCN(C)CC43)nc2n1` (stereo not shown) [Example 81, 3-Hydroxy-5-methyl-4-[2-(7-methyl-2,3,4,4a,5,6,8,8a-octahydro-1,7-naphthyridin-1-yl)oxazolo[4,5-b]pyridin-5-yl]benzonitrile], the IC50 came out at 72.3 nM.

In turn, `COCCN(c1nc2nc(-c3c(C)cc(Cl)cc3O)ccc2o1)[C@@H]1CCCN(C)C1` [Example 90, 5-Chloro-2-[2-[2-methoxyethyl-[(3R)-1-methyl-3-piperidyl]amino]oxazolo[4,5-b]pyridin-5-yl]-3-methyl-phenol;formic acid] displayed an IC50 of 22.6 nM.

In turn, `CCN1CCC[C@@H](Nc2nc3nc(-c4c(C)cc(C#N)cc4O)cnc3o2)C1` [Example 109, 4-[2-[[(3R)-1-Ethyl-3-piperidyl]amino]oxazolo[4,5-b]pyrazin-5-yl]-3-hydroxy-5-methyl-benzonitrile;2,2,2-trifluoroacetic acid] had an IC50 of 1.4 nM.

With `CCN1CCC[C@@H](Nc2nc3nc(-c4c(O)cc(F)cc4Cl)ccc3o2)C1` [Example 129, 3-Chloro-2-[2-[[(3R)-1-ethyl-3-piperidyl]amino]oxazolo[4,5-b]pyridin-5-yl]-5-fluoro-phenol;2,2,2-trifluoroacetic acid], 1.7 nM corresponded to half-maximal inhibition (IC50).

As for “2-[2-[[(3S or 3R)-1-Ethyl-3-piperidyl]amino]-1H-imidazo[4,5-b]pyridin-5-yl]-3-methyl-5-(trifluoromethyl)phenol [Example 18B]”, it took 392 nM to reach half-maximal inhibition (IC50).

In the case of “2-[2-[[(3R or 3S)-1-Ethyl-3-piperidyl]amino]-1H-imidazo[4,5-b]pyridin-5-yl]-3-methyl-5-(trifluoromethyl)phenol [Example 18A]”, the midpoint of inhibition, the IC50, lay at 4.1 nM.

`Cc1cc(C(F)(F)F)cc(O)c1-c1ccc2oc(N3CCO[C@H]4CNC[C@@H]43)nc2n1` [Example 64B, 2-[2-[(4aS,7aS)-3,4a,5,6,7,7a-Hexahydro-2H-pyrrolo[3,4-b][1,4]oxazin-4-yl]oxazolo[4,5-b]pyridin-5-yl]-3-methyl-5-(trifluoromethyl)phenol] gave an IC50 of 13.9 nM.

The compound `Cc1cc(C(F)(F)F)cc(O)c1-c1ccc2oc(N3CCOCC3CN(C)C)nc2n1` (single isomer, unassigned) [Example 2A, 2-[2-[(3R or 3S)-3-[(Dimethylamino)methyl]morpholin-4-yl]oxazolo[4,5-b]pyridin-5-yl]-3-methyl-5-(trifluoromethyl)phenol] returned an IC50 of 129 nM.

The compound `CCN1CCC[C@@H](Nc2nc3nc(-c4c(C)cc(C(F)(F)F)cc4O)ccc3o2)C1` [Example 14, 2-[2-[[(3R)-1-Ethyl-3-piperidyl]amino]oxazolo[4,5-b]pyridin-5-yl]-3-methyl-5-(trifluoromethyl)phenol] yielded an IC50 of 1 nM.

Regarding `CCN1CCC12CCN(c1nc3nc(-c4c(C)cc(C(F)(F)F)cc4O)ccc3o1)CC2` [Example 79, 2-[2-(1-Ethyl-1,7-diazaspiro[3.5]nonan-7-yl)oxazolo[4,5-b]pyridin-5-yl]-3-methyl-5-(trifluoromethyl)phenol], half-maximal inhibition (IC50) was put at 94.9 nM.

`COc1cc(C)c(-c2ccc3oc(N[C@@H]4CCCN(C)C4)nc3n2)c(O)c1` [Example 34, 5-Methoxy-3-methyl-2-[2-[[(3R)-1-methyl-3-piperidyl]amino]oxazolo[4,5-b]pyridin-5-yl]phenol] had an IC50 of 18.9 nM.

Take `CCN1C[C@@H](O)C[C@@H](Nc2nc3nc(-c4c(C)cc(C(F)(F)F)cc4O)ccc3o2)C1` [Example 51, (3S,5R)-1-Ethyl-5-[[5-[2-hydroxy-6-methyl-4-(trifluoromethyl)phenyl]oxazolo[4,5-b]pyridin-2-yl]amino]piperidin-3-ol]: the IC50 was 1.8 nM.

The values above are taken from patent US20240279237A1, “FUSED BICYCLIC HETEROARYL COMPOUNDS USEFUL AS NLRP3 INHIBITORS” (Hoffmann-La Roche Inc., priority 2021, published 2024).
